Measured values taken from US8987195B2 (priority 2012, dated 2015).
Like-named read-outs stand apart in the source and are kept apart here.

How the values were obtained:
HCV genotype 1b replicon = assay: HCV replicon assay, genotype 1b replicon EC50; type: cell-based, Hepatitis C virus; conditions: Hepatitis C virus, read-out: EC50 [gt-1b]
Summary of the method: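 Readout was replicon RNA copy number, by 32P-probe protection or TaqMan normalized to cellular cyclophilin A RNA, or luciferase activity for luciferase:Neo^r fusion lines. Cells were exposed to serially diluted compound for 24-48 hours without G418, then washed and lysed. EC50 derived from four-parameter fit relative to DMSO.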

[1] = target: HCV NS3/4A protease genotype 1b (Hepatitis C virus genotype 1b, UniProt P26663); assay: HCV NS3/4A protease time-resolved fluorescence (TRF) assay, Ki against genotype 1b; type: biochemical
Summary of the method: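 Time-resolved fluorescence readout of NS3/4A cleavage of 25 nM europium-labelled peptide over 2.5 h at room temperature, enzyme levels set for signal/background 10–30 (0.2, 0.4, 0.025 nM for 1b, A156T, 3a). Ki by IC50=Ki(1+[S]/KM).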

[2] = IC50 [gt-1b] (nM), NS3/4A genotype 1b, enzyme 0.2 nM, K+ salt
[3] = IC50 [gt-1b] (nM), NS3/4A genotype 1b, enzyme 0.2 nM
[4] = IC50 [gt-1b], NS3/4A protease TRF assay, genotype 1b enzyme 0.2 nM

Cc1nc2ccc(Cl)cc2c2c1O[C@]1(CC2)C[C@H]2C(=O)N[C@]3(C(=O)NS(=O)(=O)C4(C)CC4)C[C@H]3/C=C\CCCCC[C@H](NC(=O)OCC(C)(C)C)C(=O)N2C1 [Example 40, Neopentyl((2R,6S,13aS,14aR,16aS,Z)-9′-chloro-5′-methyl-14a-(((1-methylcyclopropyl)sulfonyl)carbamoyl)-5,16-dioxo-1′,2′,3,5,6,7,8,9,10,11,13a,14,14a,15,16,16a-hexadecahydro-1H-spiro[cyclopropa[e]pyrrolo[1,2-a][1,4]diazacyclopentadecine-2,3′-pyrano[2,3-c]quinolin]-6-yl)carbamate]
EC50 (HCV genotype 1b replicon; genotype 1b replicon, K+ salt): 5.33 nM | IC50 [1, 2]: 0.005 nM

[2H]C([2H])(F)Oc1ccc2nc(C)c3c(c2c1)[C@H](F)C[C@]1(C[C@H]2C(=O)N[C@]4(C(=O)NS(=O)(=O)C5(C)CC5)C[C@H]4/C=C\CCCCC[C@H](NC(=O)OCC(C)(C)C)C(=O)N2C1)O3 [Example 403, 2,2-dimethylpropyl [(1′R,2S,6S,12Z,13aS,14aR,16aS)-1′-fluoro-9′-{[fluoro(^2H2)methyl]oxy}-5′-methyl-14a-{[(1-methylcyclopropyl)sulfonyl]carbamoyl}-5,16-dioxo-1,1′,2′,5,6,7,8,9,10,11,13a,14,14a,15,16,16a-hexadecahydrospiro[cyclopropa[e]pyrrolo[1,2-a][1,4]diazacyclopentadecine-2,3′-pyrano[2,3-c]quinolin]-6-yl]carbamate]
EC50 (HCV genotype 1b replicon; HCV replicon, genotype 1b, K+ salt): 1.92 nM | IC50 ([1]; IC50 [gt-1b], NS3/4A protease TRF assay, genotype 1b enzyme 0.2 nM, K+ salt): 0.013 nM

COc1ccc2nc(C3CC3)c3c(c2c1)CC[C@]1(C[C@H]2C(=O)N[C@]4(C(=O)NS(=O)(=O)C5(C)CC5)C[C@H]4/C=C\CCCCC[C@H](NC(=O)OCC(C)(C)C)C(=O)N2C1)O3 [Example 153, 2,2-dimethylpropyl [(2R,6S,12Z,13aS,14aR,16aS)-5′-cyclopropyl-9′-methoxy-14a-{[(1-methylcyclopropyl)sulfonyl]carbamoyl}-5,16-dioxo-1,1′,2′,5,6,7,8,9,10,11,13a,14,14a,15,16,16a-hexadecahydrospiro[cyclopropa[e]pyrrolo[1,2-a][1,4]diazacyclopentadecine-2,3′-pyrano[2,3-c]quinolin]-6-yl]carbamate]
EC50 (HCV genotype 1b replicon; genotype 1b replicon, K+ salt): 1.86 nM | IC50 [1, 2]: 0.014 nM

Cc1nc2ccccc2c2c1O[C@]1(C=C2)C[C@H]2C(=O)N[C@]3(C(=O)NS(=O)(=O)C4CC4)C[C@H]3/C=C\CCCCC[C@H](NC(=O)OC(C)(C)C)C(=O)N2C1 [Example 26, tert-Butyl (2S,6S,13aS,14aR,16aS,Z)-14a-(cyclopropylsulfonylcarbamoyl)-5′-methyl-5,16-dioxo-3,5,6,7,8,9,10,11,13a,14,14a,15,16,16a-tetradecahydro-1H-spiro [cyclopropa[e]pyrrolo[1,2-a][1,4]diazacyclopentadecine-2,3′-pyrano[2,3-c]quinoline-]-6-ylcarbamate]
EC50 (HCV genotype 1b replicon; genotype 1b replicon): 1.34 nM | IC50 [1, 3]: 0.013 nM

CC1(OC(=O)N[C@H]2CCCCC/C=C\[C@@H]3C[C@@]3(C(=O)NS(=O)(=O)C3(C)CC3)NC(=O)[C@@H]3C[C@]4(CCc5c(c(C6CC6)nc6ccccc56)O4)CN3C2=O)CC1 [Example 102, 1-methylcyclopropyl [(2R,6S,12Z,13aS,14aR,16aS)-5′-cyclopropyl-14a-{[(1-methylcyclopropyl)sulfonyl]carbamoyl}-5,16-dioxo-1,1′,2′,5,6,7,8,9,10,11,13a,14,14a,15,16,16a-hexadecahydrospiro[cyclopropa[e]pyrrolo[1,2-a][1,4]diazacyclopentadecine-2,3′-pyrano[2,3-c]quinolin]-6-yl]carbamate]
EC50 (HCV genotype 1b replicon; genotype 1b replicon): 1.58 nM | IC50 [1, 3]: 0.004 nM

CC(C)OC(=O)N[C@H]1CCCCC/C=C\[C@@H]2C[C@@]2(C(=O)NS(=O)(=O)C2(C)CC2)NC(=O)[C@@H]2C[C@]3(CCc4c(c(C(F)(F)F)nc5ccc(Cl)cc45)O3)CN2C1=O [Example 385, propan-2-yl [(2R,6S,12Z,13aS,14aR,16aS)-9′-chloro-14a-{[(1-methylcyclopropyl)sulfonyl]carbamoyl}-5,16-dioxo-5′-(trifluoromethyl)-1,1′,2′,5,6,7,8,9,10,11,13a,14,14a,15,16,16a-hexadecahydrospiro[cyclopropa[e]pyrrolo[1,2-a][1,4]diazacyclopentadecine-2,3′-pyrano[2,3-c]quinolin]-6-yl]carbamate]
EC50 (HCV genotype 1b replicon; HCV replicon, genotype 1b): 6.79 nM | IC50 [1, 4]: 0.017 nM

Cc1ccc2nc(C)c3c(c2c1)CC[C@]1(C[C@H]2C(=O)NC4(C(=O)NS(=O)(=O)C5(C)CC5)C[C@H]4/C=C\CCCCC[C@H](NC(=O)OC(C)(C)C)C(=O)N2C1)O3 (stereo partly drawn) [Example 42, tert-Butyl (1aR,3aS,3′R,9S,16aS,Z)-5′,9′-dimethyl-1a-(1-methylcyclopropylsulfonylcarbamoyl)-3,8-dioxo-1a,1′,2,2′,3,3a,4,6,8,9,10,11,12,13,14,16a-hexadecahydro-1H -spiro[cyclopropa[e]pyrrolo[1,2-a][1,4]diazacyclopentadecine-5,3′-pyrano[2,3-c]quinoline]-9-ylcarbamate]
EC50 (HCV genotype 1b replicon; genotype 1b replicon): 2.59 nM | IC50 [1, 3]: 0.008 nM

CCc1nc2ccc(OC)cc2c2c1O[C@]1(CC2)C[C@H]2C(=O)N[C@]3(C(=O)NS(=O)(=O)C4(C)CC4)C[C@H]3/C=C\CCCCC[C@H](NC(=O)OC(C)(C)C(F)(F)F)C(=O)N2C1 [Example 335, 1,1,1-trifluoro-2-methylpropan-2-yl [(2R,6S,12Z,13aS,14aR,16aS)-5′-ethyl-9′-methoxy-14a-{[(1-methylcyclopropyl)sulfonyl]carbamoyl}-5,16-dioxo-1,1′,2′,5,6,7,8,9,10,11,13a,14,14a,15,16,16a-hexadecahydrospiro[cyclopropa[e]pyrrolo[1,2-a][1,4]diazacyclopentadecine-2,3′-pyrano[2,3-c]quinolin]-6-yl]carbamate]
EC50 (HCV genotype 1b replicon; genotype 1b replicon): 2.6 nM | IC50 [1, 3]: 0.017 nM

Cc1nc2ccc(C(F)(F)F)cc2c2c1O[C@]1(CC2)C[C@H]2C(=O)N[C@]3(C(=O)NS(=O)(=O)C4(C)CC4)C[C@H]3/C=C\CCCCC[C@H](NC(=O)OC(C)(C)C(F)(F)F)C(=O)N2C1 [Example 319, 1,1,1-trifluoro-2-methylpropan-2-yl [(2R,6S,12Z,13aS,14aR,16aS)-5′-methyl-14a-{[(1-methylcyclopropyl)sulfonyl]carbamoyl}-5,16-dioxo-9′-(trifluoromethyl)-1,1′,2′,5,6,7,8,9,10,11,13a,14,14a,15,16,16a-hexadecahydrospiro[cyclopropa[e]pyrrolo[1,2-a][1,4]diazacyclopentadecine-2,3′-pyrano[2,3-c]quinolin]-6-yl]carbamate]
EC50 (HCV genotype 1b replicon; genotype 1b replicon, K+ salt): 17.8 nM | IC50 [1, 2]: 0.044 nM

Cc1nc2ccccc2c2c1O[C@]1(CC2)C[C@H]2C(=O)N[C@]3(C(=O)NS(=O)(=O)C4(C)CC4)C[C@H]3/C=C\CCCCC[C@H](NC(=O)OC(C)(C)C(F)(F)C(F)(F)F)C(=O)N2C1 [Example 300, 3,3,4,4,4-pentafluoro-2-methylbutan-2-yl [(2R,6S,12Z,13aS,14aR,16aS)-5′-methyl-14a-{[(1-methylcyclopropyl)sulfonyl]carbamoyl}-5,16-dioxo-1,1′,2′,5,6,7,8,9,10,11,13a,14,14a,15,16,16a-hexadecahydrospiro[cyclopropa[e]pyrrolo[1,2-a][1,4]diazacyclopentadecine-2,3′-pyrano[2,3-c]quinolin]-6-yl]carbamate]
EC50 (HCV genotype 1b replicon; genotype 1b replicon): 3.12 nM | IC50 [1, 3]: 0.021 nM

CC(C)OC(=O)N[C@H]1CCCCC/C=C\[C@@H]2C[C@@]2(C(=O)NS(=O)(=O)C2(C)CC2)NC(=O)[C@@H]2C[C@]3(CCc4c(c(C(F)(F)F)nc5ccccc45)O3)CN2C1=O [Example 157, propan-2-yl [(2R,6S,12Z,13aS,14aR,16aS)-14a-{[(1-methylcyclopropyl)sulfonyl]carbamoyl}-5,16-dioxo-5′-(trifluoromethyl)-1,1′,2′,5,6,7,8,9,10,11,13a,14,14a,15,16,16a-hexadecahydrospiro[cyclopropa[e]pyrrolo[1,2-a][1,4]diazacyclopentadecine-2,3′-pyrano[2,3-c]quinolin]-6-yl]carbamate]
EC50 (HCV genotype 1b replicon; genotype 1b replicon): 1.72 nM | IC50 [1, 3]: 0.02 nM

CC(C)[C@H](C)OC(=O)N[C@H]1CCCCC/C=C\[C@@H]2C[C@@]2(C(=O)NS(=O)(=O)C2(C)CC2)NC(=O)[C@@H]2C[C@]3(CCc4c(c(C(F)(F)F)nc5ccc(OCCN6CCOCC6)cc45)O3)CN2C1=O [Example 474, (2S)-3-methylbutan-2-yl [(2R,6S,12Z,13aS,14aR,16aS)-14a-{[(1-methylcyclopropyl)sulfonyl]carbamoyl}-9′-[2-(morpholin-4-yl)ethoxy]-5,16-dioxo-5′-(trifluoromethyl)-1,1′,2′,5,6,7,8,9,10,11,13a,14,14a,15,16,16a-hexadecahydrospiro[cyclopropa[e]pyrrolo[1,2-a][1,4]diazacyclopentadecine-2,3′-pyrano[2,3-c]quinolin]-6-yl]carbamate]
EC50 (HCV genotype 1b replicon; HCV replicon, genotype 1b): 1.73 nM | IC50 [1, 4]: 0.033 nM

COc1ccc2nc(C3CC3)c3c(c2c1)[C@H](F)C[C@]1(C[C@H]2C(=O)N[C@]4(C(=O)NS(=O)(=O)C5(C)CC5)C[C@H]4/C=C\CCCCC[C@H](NC(=O)OC(C)(C)C)C(=O)N2C1)O3 [Example 428, tert-butyl [(l′R,2S,6S,12Z,13aS,14aR,16aS)-5′-cyclopropyl-1′-fluoro-9′-methoxy-14a-{[(1-methylcyclopropyl)sulfonyl]carbamoyl}-5,16-dioxo-1,1′,2′,5,6,7,8,9,10,11,13a,14,14a,15,16,16a-hexadecahydrospiro[cyclopropa[e]pyrrolo[1,2-a][1,4]diazacyclopentadecine-2,3′-pyrano[2,3-c]quinolin]-6-yl]carbamate]
EC50 (HCV genotype 1b replicon; HCV replicon, genotype 1b): 2.21 nM | IC50 [1, 4]: 0.02 nM
